From patent US20100160454A1, “ANTIMICROBIAL AGENTS, COMPOSITIONS AND PRODUCTS CONTAINING THE SAME, AND METHODS OF USING THE COMPOSITIONS AND PRODUCTS” (Eastman Chemical Company, priority 2008, published 2010)

What was measured:
Assay type in all cases: cell-based
[1] = tested on: Streptococcus mutans ATCC 35668; experiment: Microbiological challenge testing in BPW broth, graded subculture counts
Procedure: (§1) The microorganisms in the table below were used in challenge tests. They were either ATCC (American Type Culture Collection) or “wild type” as indicated. Wild type organisms were problematic organisms previously isolated from chemical products.
(§2) All of the microorganisms were grown in Tryptose Soy Broth (TSB), DIFCO™ available from Becton, Dickinson and Company, containing 1% dextrose. Candida albicans and Aspergillus niger, were incubated at 22° C.+/−2° C. for at least 96 hours. All bacteria were incubated at 35° C.+/−2° C. in a humidified incubator for at least 96 hours.
(§3) The following procedure was followed to determine the amount of each challenge material (inoculum broth) needed to produce a 10^8 CFU/mL challenge, which is equivalent to a final test-sample microbial concentration of 10^5 to 10^6 CFU/mL (CFU=colony forming units).
(§4) Using a sterile pipette, 1 mL of the growth from each TSB culture was transferred into tubes of 9 mL buffered water (pH 7.2 phosphate buffer) and mixed thoroughly. This was repeated to make serial 1:10 dilutions. Then, 0.1 mL of each sample and dilution was inoculated onto agar plates to produce the equivalent of a further 1:10 dilution. (C. albicans and A. niger were inoculated onto SABD and bacteria were inoculated onto Plate Count Agar (PCA), DIFCO™ available from Becton, Dickinson and Company.) (The normal volume plated for most samples was 0.1 mL. Some samples that could be very low in micro-organisms (high dilutions) were plated using 0.5 mL of inoculum, in order to produce reproducible counts.) The samples were distributed on the plates using the spread-plate technique. The spread-plate technique is carried out by spreading the sample over the entire plate surface using a sterile spreading rod while rotating the plate with a rotary auto-plater. After the inoculum was absorbed completely by the agar, each plate was inverted and incubated (fungi at 22° C.+/−2° C. and bacteria at 35° C.+/−2° C.).
(§5) After incubation for at least 48 hours, colonies that had developed on the agar plates were counted (CFU) and recorded with the corresponding dilution. If counting had to be delayed temporarily, plates were refrigerated, preferably no more than 24 hours, until they could be counted. The number of CFU/mL was determined by multiplying the plate count by the dilution factor of the plate counted.
(§6) Turbidity in Nepholemetric Turbidity Units (NTU) was measured for each serial dilution using the HF-Micro 100 Model Turbidimeter. For each microorganism, the plate counts were compared to the turbidity readings.
(§7) Control substrates (“broth alone”) were prepared for each microorganism separately in triplicate by adding 13.5 mL of Buffered Peptone Water broth (BPW) containing 1% dextrose to each 20-mL glass tube, then adding 1.5 mL challenge material to produce a final concentration at time zero of 10^5 to 10^6 CFU/mL and a total volume of 15 mL.
(§8) Test sample substrates were prepared containing each test material listed below at the concentrations shown for challenge testing with each microorganism separately. Sample substrates were prepared in triplicate, except the substrates containing butoxyethanol which were prepared in duplicate. Substrates were prepared by adding BPW containing 1% dextrose to each 20-mL glass tube, then adding the test material in the amount appropriate to achieve the desired weight/volume percent and to achieve a total volume of BPW plus dextrose plus test material of 13.5 mL. Then 1.5 mL challenge material was added to produce a final concentration at time zero of 10^5 to 10^6 CFU/mL and a total test sample substrate volume of 15 mL.

[2] = tested on: Burkholderia cepacia Wild type; experiment: as above; details: B. cepacia
Procedure: as §1, §2, §3, §4, §5, §6, §7, §8

[3] = tested on: Staphylococcus epidermidis ATCC 12228; experiment: as above
Procedure: as §1, §2, §3, §4, §5, §6, §7, §8

[4] = tested on: Microsporum canis (ATTC 9084); experiment: Challenge testing against pathogenic fungi, growth rating in broth tubes; design: key: 0: No visible growth; 1: Some growth in tube; 2: Moderate growth in tube; 3: Good growth in tube; 4: Extreme growth in tube
In short: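 Fungi grown in Sabouraud dextrose broth (M. furfur with 2% olive oil/0.2% Tween 80), 22±2 °C; tubes of 1,4-CHDM-D90 dilutions inoculated, static incubation, subcultured at 3, 14, 30 days, triplicate. Growth rated 0–4: visually (M. canis), INT redox dye (T. rubrum), pellicle formation (M. furfur); 30-day MIC.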

## O=C([O-])CN(CCN(CC(=O)[O-])CC(=O)O)CC(=O)O.[Na+].[Na+] [EDTA, Na2EDTA]
[1]; 0.5% weight/volume
  S. mutans growth grade, 3 day: 4 (1000 to 10,000 colonies countable (thus 10,000 CFU/mL to 100,000 CFU/mL))
  S. mutans growth grade, 13 day: 4 (1000 to 10,000 colonies countable (thus 10,000 CFU/mL to 100,000 CFU/mL))
  S. mutans growth grade, 30 day: 4 (1000 to 10,000 colonies countable (thus 10,000 CFU/mL to 100,000 CFU/mL))
[1]; 1.25% weight/volume
  S. mutans growth grade, 3 day: 2 (52 to 100 colonies counted (thus 520 to 1000 CFU/mL))
  S. mutans growth grade, 13 day: 2 (52 to 100 colonies counted (thus 520 to 1000 CFU/mL))
  S. mutans growth grade, 30 day: 2 (52 to 100 colonies counted (thus 520 to 1000 CFU/mL))
[1]; 2.5% weight/volume
  S. mutans growth grade, 3 day: 0
  S. mutans growth grade, 13 day: 0
  S. mutans growth grade, 30 day: 0
[1]; 5.0% weight/volume
  S. mutans growth grade, 3 day: 0
  S. mutans growth grade, 13 day: 0
  S. mutans growth grade, 30 day: 0
[2]; 0.5% (wt/vol), 3 day
  Grade: 4 (1000 to 10,000 colonies countable (thus 10,000 CFU/mL to 100,000 CFU/mL))
[2]; 0.5% (wt/vol), 14 day
  Grade: 4 (1000 to 10,000 colonies countable (thus 10,000 CFU/mL to 100,000 CFU/mL))
[2]; 0.5% (wt/vol), 30 day
  Grade: 4 (1000 to 10,000 colonies countable (thus 10,000 CFU/mL to 100,000 CFU/mL))
[2]; 1.25% (wt/vol), 3 day
  Grade: 3 (100 to 1000 colonies (thus 1000 to 10,000 CFU/mL))
[2]; 1.25% (wt/vol), 14 day
  Grade: 2 (52 to 100 colonies counted (thus 520 to 1000 CFU/mL))
[2]; 1.25% (wt/vol), 30 day
  Grade: 2 (52 to 100 colonies counted (thus 520 to 1000 CFU/mL))
[2]; 2.5% (wt/vol), 3 day
  Grade: 1 (0 to 51 colonies counted (thus 10 to 510 CFU/mL based on 0.1-mL sample))
[2]; 2.5% (wt/vol), 14 day
  Grade: 0
[2]; 2.5% (wt/vol), 30 day
  Grade: 0
[2]; 5.0% (wt/vol), 3 day
  Grade: 0
[2]; 5.0% (wt/vol), 14 day
  Grade: 0
[2]; 5.0% (wt/vol), 30 day
  Grade: 0
[3]; 0.5% weight/volume
  S. epidermidis growth grade, 3 day: 4 (1000 to 10,000 colonies countable (thus 10,000 CFU/mL to 100,000 CFU/mL))
  S. epidermidis growth grade, 13 day: 3 (100 to 1000 colonies (thus 1000 to 10,000 CFU/mL))
  S. epidermidis growth grade, 30 day: 4 (1000 to 10,000 colonies countable (thus 10,000 CFU/mL to 100,000 CFU/mL))
[3]; 1.25% weight/volume
  S. epidermidis growth grade, 3 day: 2 (52 to 100 colonies counted (thus 520 to 1000 CFU/mL))
  S. epidermidis growth grade, 13 day: 1 (0 to 51 colonies counted (thus 10 to 510 CFU/mL based on 0.1-mL sample))
  S. epidermidis growth grade, 30 day: 0
[3]; 2.5% weight/volume
  S. epidermidis growth grade, 3 day: 0
  S. epidermidis growth grade, 13 day: 0
  S. epidermidis growth grade, 30 day: 0
[3]; 5.0% weight/volume
  S. epidermidis growth grade, 3 day: 0
  S. epidermidis growth grade, 13 day: 0
  S. epidermidis growth grade, 30 day: 0
[4]; 0.5% weight/volume
  M. canis growth rating, 3 day: 2
  M. canis growth rating, 14 day: 1
  M. canis growth rating, 30 day: 0
[4]; 1.25% weight/volume
  M. canis growth rating, 3 day: 2
  M. canis growth rating, 14 day: 1
  M. canis growth rating, 30 day: 0
[4]; 2.5% weight/volume
  M. canis growth rating, 3 day: 2
  M. canis growth rating, 14 day: 1
  M. canis growth rating, 30 day: 0
[4]; 5.0% weight/volume
  M. canis growth rating, 3 day: 2
  M. canis growth rating, 14 day: 0
  M. canis growth rating, 30 day: 0

## CC(O)CO (stereo not drawn) [PG, propylene glycol]
[1]; 0.5% weight/volume
  S. mutans growth grade, 3 day: 5 (More than 10,000 colonies estimated (thus more than 100,000 CFU/mL))
  S. mutans growth grade, 13 day: 5 (More than 10,000 colonies estimated (thus more than 100,000 CFU/mL))
  S. mutans growth grade, 30 day: 5 (More than 10,000 colonies estimated (thus more than 100,000 CFU/mL))
[1]; 1.25% weight/volume
  S. mutans growth grade, 3 day: 4 (1000 to 10,000 colonies countable (thus 10,000 CFU/mL to 100,000 CFU/mL))
  S. mutans growth grade, 13 day: 4 (1000 to 10,000 colonies countable (thus 10,000 CFU/mL to 100,000 CFU/mL))
  S. mutans growth grade, 30 day: 4 (1000 to 10,000 colonies countable (thus 10,000 CFU/mL to 100,000 CFU/mL))
[1]; 2.5% weight/volume
  S. mutans growth grade, 3 day: 4 (1000 to 10,000 colonies countable (thus 10,000 CFU/mL to 100,000 CFU/mL))
  S. mutans growth grade, 13 day: 4 (1000 to 10,000 colonies countable (thus 10,000 CFU/mL to 100,000 CFU/mL))
  S. mutans growth grade, 30 day: 4 (1000 to 10,000 colonies countable (thus 10,000 CFU/mL to 100,000 CFU/mL))
[1]; 5.0% weight/volume
  S. mutans growth grade, 3 day: 4 (1000 to 10,000 colonies countable (thus 10,000 CFU/mL to 100,000 CFU/mL))
  S. mutans growth grade, 13 day: 4 (1000 to 10,000 colonies countable (thus 10,000 CFU/mL to 100,000 CFU/mL))
  S. mutans growth grade, 30 day: 4 (1000 to 10,000 colonies countable (thus 10,000 CFU/mL to 100,000 CFU/mL))
[2]; 0.5% (wt/vol), 3 day
  Grade: 5 (More than 10,000 colonies estimated (thus more than 100,000 CFU/mL))
[2]; 0.5% (wt/vol), 14 day
  Grade: 5 (More than 10,000 colonies estimated (thus more than 100,000 CFU/mL))
[2]; 0.5% (wt/vol), 30 day
  Grade: 5 (More than 10,000 colonies estimated (thus more than 100,000 CFU/mL))
[2]; 1.25% (wt/vol), 3 day
  Grade: 5 (More than 10,000 colonies estimated (thus more than 100,000 CFU/mL))
[2]; 1.25% (wt/vol), 14 day
  Grade: 5 (More than 10,000 colonies estimated (thus more than 100,000 CFU/mL))
[2]; 1.25% (wt/vol), 30 day
  Grade: 5 (More than 10,000 colonies estimated (thus more than 100,000 CFU/mL))
[2]; 2.5% (wt/vol), 3 day
  Grade: 5 (More than 10,000 colonies estimated (thus more than 100,000 CFU/mL))
[2]; 2.5% (wt/vol), 14 day
  Grade: 5 (More than 10,000 colonies estimated (thus more than 100,000 CFU/mL))
[2]; 2.5% (wt/vol), 30 day
  Grade: 5 (More than 10,000 colonies estimated (thus more than 100,000 CFU/mL))
[2]; 5.0% (wt/vol), 3 day
  Grade: 4 (1000 to 10,000 colonies countable (thus 10,000 CFU/mL to 100,000 CFU/mL))
[2]; 5.0% (wt/vol), 14 day
  Grade: 4 (1000 to 10,000 colonies countable (thus 10,000 CFU/mL to 100,000 CFU/mL))
[2]; 5.0% (wt/vol), 30 day
  Grade: 4 (1000 to 10,000 colonies countable (thus 10,000 CFU/mL to 100,000 CFU/mL))
[3]; 0.5% weight/volume
  S. epidermidis growth grade, 3 day: 5 (More than 10,000 colonies estimated (thus more than 100,000 CFU/mL))
  S. epidermidis growth grade, 13 day: 5 (More than 10,000 colonies estimated (thus more than 100,000 CFU/mL))
  S. epidermidis growth grade, 30 day: 5 (More than 10,000 colonies estimated (thus more than 100,000 CFU/mL))
[3]; 1.25% weight/volume
  S. epidermidis growth grade, 3 day: 4 (1000 to 10,000 colonies countable (thus 10,000 CFU/mL to 100,000 CFU/mL))
  S. epidermidis growth grade, 13 day: 4 (1000 to 10,000 colonies countable (thus 10,000 CFU/mL to 100,000 CFU/mL))
  S. epidermidis growth grade, 30 day: 4 (1000 to 10,000 colonies countable (thus 10,000 CFU/mL to 100,000 CFU/mL))
[3]; 2.5% weight/volume
  S. epidermidis growth grade, 3 day: 4 (1000 to 10,000 colonies countable (thus 10,000 CFU/mL to 100,000 CFU/mL))
  S. epidermidis growth grade, 13 day: 4 (1000 to 10,000 colonies countable (thus 10,000 CFU/mL to 100,000 CFU/mL))
  S. epidermidis growth grade, 30 day: 4 (1000 to 10,000 colonies countable (thus 10,000 CFU/mL to 100,000 CFU/mL))
[3]; 5.0% weight/volume
  S. epidermidis growth grade, 3 day: 4 (1000 to 10,000 colonies countable (thus 10,000 CFU/mL to 100,000 CFU/mL))
  S. epidermidis growth grade, 13 day: 4 (1000 to 10,000 colonies countable (thus 10,000 CFU/mL to 100,000 CFU/mL))
  S. epidermidis growth grade, 30 day: 4 (1000 to 10,000 colonies countable (thus 10,000 CFU/mL to 100,000 CFU/mL))
[4]; 0.5% weight/volume
  M. canis growth rating, 3 day: 2
  M. canis growth rating, 14 day: 1
  M. canis growth rating, 30 day: 2
[4]; 1.25% weight/volume
  M. canis growth rating, 3 day: 2
  M. canis growth rating, 14 day: 1
  M. canis growth rating, 30 day: 1
[4]; 2.5% weight/volume
  M. canis growth rating, 3 day: 1
  M. canis growth rating, 14 day: 1
  M. canis growth rating, 30 day: 2
[4]; 5.0% weight/volume
  M. canis growth rating, 3 day: 1
  M. canis growth rating, 14 day: 1
  M. canis growth rating, 30 day: 2
